According to patent US8911725B2, “Co-targeting of aurora A kinase and LIM kinase 1 for cancer therapy” (University of Central Florida Research Foundation, Inc., priority 2010, dated 2014):

Tests used:
Assay type in all cases: cell-based
[1] = tested on: PC3 cells; test: Western blot analysis of nuclear extracts for phospho-Histone H3; conditions: MLN8237 0.01 uM, nuclear extracts from PC3 cells
Procedure: (§1) FIG. 8. […] Western blot analysis of nuclear extracts from PC3 cells treated with MLN8237 (0.01 uM). Y-tubulin staining was used as the loading control. […] PC3 and RWPE1 cells were treated with MLN8237 (0.01 uM) MLN8237 for 24, 48, and 72 hr and cell viability was measured by MTT Assay.

[2] = tested on: PC3 and RWPE1 cells; test: Immunofluorescence analysis of cells treated with MLN8237; conditions: MLN8237 0.01 uM, 24 hr
[3] = tested on: PC3 cells; test: Cell proliferation by MTS assay, MLN8237 with LIMK1 shRNA or control shRNA
Procedure: 10 cm dishes were transiently transfected with 6 ug of LIMK1 shRNA or control shRNA. 24 hrs post transfection, untransfected PC3 cells along with the transfected PC3 cells were seeded in 96 well plates in triplicate (5,000 cells/well). 14 hrs after seeding, media was changed to MLN8237 containing media, at concentrations of 0.001 uM, 0.01 uM, and 0.1 uM. After 24 and 48 hours of inhibitor treatment, cell proliferation was measured using MTS assay. MTS reagent was added to each well and allowed to incubate for 3 hrs at 37° C. before reading absorbances. Absorbances were compared against controls.

[4] = tested on: PC3 and RWPE1 cells; test: Cell viability by MTT assay; conditions: MLN8237 0.01 uM, 24, 48 and 72 hr
Procedure: as §1

[5] = tested on: PC3 cells; test: Western blot of LIMK1 and pAurKA after LIMK1 shRNA transfection; conditions: LIMK1 shRNA versus control shRNA
Procedure: FIG. 6 PC3 cells were transfected with LIMK1 shRNA or control shRNA and the levels of LIMK1 and pAurKA were detected by western blotting using anti-LIMK1 or anti phospho-AurKA antibodies. GAPDH was used as the loading control. The ratio of pAurKA to GAPDH levels was determined by densitometry (left panel).

[6] = tested on: PC3 cells; test: Immunofluorescence of spindle structure after LIMK1 shRNA transfection, spindle abnormalities counted
Description: FIG. 7 A: PC3 cells were transfected with either LIMK1 or control shRNA. In control shRNA transfected cells, distinct localization of pAurKA (green) at the spindle poles (red) could be noted. […] PC3 cells were transfected with either LIMK1 or control shRNA and spindle abnormalities were quantified by counting 50 cells per treatment.

Compound | levels of phospho-Histone H3 (mitotic arrest) [1] | localization of pAurKA and spindle morphology (alpha-tubulin) [2] | localization of pLIMK1 and centrin [2] | sensitivity of untransfected PC3 cells to MLN8237 (MTS) ([3]; 0.001, 0.01 and 0.1 uM, 24 and 48 hr) | cell survival (cell viability, MTT) [4] | level of phosphorylated AurKA [5] | number of viable cells compared to control shRNA ([3]; 0.001 uM MLN8237, 48 hrs, PC3 cells) [%] | number of viable cells compared to control shRNA ([3]; 0.1 uM MLN8237, 48 hrs, PC3 cells) [%] | sensitivity to MLN8237 versus control shRNA transfected cells ([3]; PC3 cells, MLN8237 0.001-0.1 uM) | sensitivity to AurKA inhibitor versus untransfected PC3 cells treated only with AurKA inhibitor ([3]; normalised to untransfected PC3 cells treated with vehicle (DMSO), 24 and 48 hr) | number of abnormal spindles ([6]; 50 cells counted per treatment) | spindle structure (alpha-tubulin staining) ([6]; LIMK1 shRNA versus control shRNA)
COc1cc(Nc2ncc3c(n2)-c2ccc(Cl)cc2C(c2c(F)cccc2OC)=NC3)ccc1C(=O)O [MLN8237] | Increased the Levels of phospho-Histone H3 | mislocalization of pAurKA (green) and improper spindle morphology | diffused staining and mislocalization of pLIMK1 (green) and centrin (red) in the nucleus | most sensitive to 0.1 uM MLN8237 at 48 hrs | Decreased Cell Survival | – | – | – | – | – | – | –
AAGGACAAGAGGCTCAACTTCATCACTGA (listed as DNA, chemistry not given here) [LIMK1 shRNA, interfering RNA (shRNA) targeting LIMK1] | – | – | – | – | – | decreased the level of phosphorylated AurkA | 75 | 83 | more sensitivity to MLN8237 | increased the sensitivity of the cells to AurKA inhibitor at all concentrations | increased the number of abnormal spindles | disorganized spindle structure
